Columns and labels:
DCs from MLN = experiment: TGF-β and IL-10 expression in CD11C+ DCs from MLN by RT PCR; format: in vivo, mice; settings: RT PCR relative to GAPDH; 3 days after feeding; reversed by anti-TGF-β
Protocol: MLN CD11C+ DCs were isolated by magnetic separation using anti CD11C microbeads (Miltenyi Biotec). Total RNA was isolated from cell pellets using the RNA easy Mini Kit (QIAGEN) and stored at −80° C. First strand cDNA synthesis was performed on 0.5-1 μg of total RNA for each RNA sample using Taqman reverse transcription reagents. The cDNA was amplified using sequence specific primers for IL-10, and TGF-β and real-time PCR mix (Applied Biosystems) in an ABI7500 cycler. The GAPDH gene was used as an endogenous control to normalize for differences in the amount of total RNA in each sample. All values were expressed as a fold increase or decrease relative to the expression of GAPDH.
To investigate the effect of feeding the anti-CD3 plus GC combination on DCs, the inventors first measured the expression of TGF-β and IL-10 in DCs from MLN. […] Injection of anti-TGF-β reversed the effect. The inventors then investigated the effect of DCs obtained from animals treated with the oral combination of anti-CD3 plus GC, or from the control PBS treated animals, on T-cells harvested from mice fed either with PBS or with the combination of anti-CD3 plus GC. T cells were stimulated with anti-CD3 in vitro. […]

ob/ob mice [1] = experiment: Pathologic analysis of pancreas, liver and muscle of ob/ob mice; format: in vivo; settings: vs PBS
Protocol: The liver, pancreas, and muscle were removed from control or treated mice and placed in 4% formalin followed by paraffin embedding. Five sections were prepared from each organ. The tissues were stained for heamtoxylin eosin and liver sections were additionally stained with oil-red-o. All sections were blindly scored by a pathologist.
The inventors next investigated the beneficial effect of the combined oral composition of anti-CD3 plus GC treatment of ob/ob mice by pathologic analysis of pancreas, liver and muscle. […] In addition, a reversal of muscle fiber thinning and increased nuclei was clearly observed in animals treated with the oral combination of anti-CD3 plus GC.

ob/ob mice [2] = experiment: Metabolic syndrome model in ob/ob mice: serum glucose, AST, ALT, cholesterol, weight after oral feeding; format: in vivo
Protocol: Mice were fed a total volume of 0.2 ml by gastric intubation with an 18-gauge stainless steel feeding needle (Thomas Scientific). Mice were fed once a day for five consecutive days with either phosphate-buffered saline (PBS), hamster isotype control (IC 5 μg/feeding), anti CD3 antibody (5 ug/feeding), or β-glucosylceramide (GC), 100 μg/feeding (dissolved in ethanol and emulsified in PBS). Mice fed with the combination of anti-CD3 and GC received 5 ug anti-CD3 and 100 ug GC in 0.2 ml PBS. Mice were injected IP with 100 μg anti TGF-β one day before the feeding and than on alternative days another 4 injections, a total of 500 μg.
Sera from individual mice were obtained. Serum AST and ALT levels were measured by an automatic analyzer.
In order to investigate the potential effect of combining two different immune-modulatory compounds on an immune-related disorder such as the metabolic syndrome, the ob/ob leptin deficient mice that manifest insulin resistance, hypelipidemia, fatty liver, and diabetes, were used as an animal model.
Four groups of ob/ob mice were tested, groups 1 and 2 served as control groups (group of untreated mice and group of mice treated with GC and Isotype Control, respectively), group 3 were treated with anti CD3 (5 microgram) antibody and group 4 were orally administered with a combination of anti-CD3 (5 μg) antibody and β-glucosylceramide (GC, 100 μg) per dose for five consecutive days. Animals were assessed on days 10 and 28. The doses studied were based on previous studies of anti-CD3 and GC in animal models [Ochi, H., et al. Nat. Med. 12:627-635 (2006); Zigmond, E. et al. Gut 56:82-89 (2007); Ilan, Y. et al. Transplantation 83:458-467 (2007)]. Determination of hepatic fat content and inflammation was performed by measurement of serum Alanine aminotransferase (ALT) and Aspartate aminotransferase (AST) levels. Serum glucose and cholesterol levels were also assessed.

MLN cells = experiment: Cytokine production (ELISA) by MLN cells or splenocytes of fed ob/ob mice stimulated in vitro with anti-CD3; format: in vivo; settings: in vitro 1 μg/ml anti-CD3 stimulation; vs PBS
Protocol: For cytokine assays, splenocytes or MLN cells were grown (10^6 cells per well) in serum-free medium X-VIVO 20 (BioWhittaker) with 1 ug/ml soluble anti-CD3 antibody. Supernatants were collected after 40 h for IL-2, IL-4, IL6, IL-10, IFN-γ, and IL-17, or after 72 h for TGF-β and quantitative ELISA was performed using paired antibodies and recombinant cytokines obtained from PharMingen according to their recommendations. When purified T-cells ([…] cells per well) were checked for cytokine secretion, they were stimulated with 1 ug/ml anti-CD3 in the presence of DCs (10×10^3 cells per well) for 40 or 72 h and the cytokine content in the supernatant was measured as outlined above. The tissue cytokine profile was determined for gut, liver, and pancreas. Part of the organ was weighed and homogenized on ice with TISSUEMISER (Fisher Scientific) in buffer containing PBS/BSA/TWEEN and protein inhibitor tablets (Roche). […]
To investigate the potential mechanisms by which oral combination of anti-CD3 plus GC affected the metabolic abnormalities describe above, the inventors next measured cytokine production by MLN cells obtained from the different experimental groups, that were then stimulated in vitro with 1 μg/ml anti-CD3 for five days. […] The inventors next measured cytokine levels in supernatants from homogenized tissues from ob/ob treated mice. […]

**Q.** β-glucosylceramide [GC] was tested. Which “IL-10 expression in DCs from MLN” value (DCs from MLN) did it give?
**A.** Its value is “not”.

**Q.** And the “TGF-β expression in DCs from MLN” value (DCs from MLN)?
**A.** The value was “not”.

**Q.** What about the hepatic fat accumulation (ob/ob mice [1]) of the same substance?
**A.** Its hepatic fat accumulation is “some effect”.

**Q.** And the pancreatic hyperplasia (ob/ob mice [1])?
**A.** The pancreatic hyperplasia was “some effect”.

**Q.** What about the weight of animals (ob/ob mice [2]; compared to control) of the same substance?
**A.** Its weight of animals is “No change”.

**Q.** What about the “serum AST levels” value (ob/ob mice [2]; ob/ob mice fed daily for 5 days, 10 days after last feeding, PBS 416 U/l) of the same substance?
**A.** The value was 310 U/l.

**Q.** And the Serum cholesterol levels (ob/ob mice [2]; ob/ob mice fed daily for 5 days, PBS 218 mg %)?
**A.** Its Serum cholesterol levels is 225 mg %.

**Q.** What about the blood glucose (ob/ob mice [2]; ob/ob mice fed daily for 5 days, tested 10 days after last feeding, PBS 367 mg %) of the same substance?
**A.** The blood glucose was 337 mg %.

**Q.** And the “production of IL-10 by MLN cells” value (MLN cells)?
**A.** Its value is “No effects”.

**Q.** And the “production of TGF-β by MLN cells” value (MLN cells)?
**A.** Its value is “No effects”.
